From PubChem BioAssay (NCI)
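Values below derive from 48-hour exposures of cells grown in 96-well plates, with endpoints linearly interpolated between the two concentrations bracketing the appropriate inhibition level. At the TGI there is no net growth.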

Columns and labels:
Assay in all cases: DTP human tumour cell line panel, 48 h
[1] = test system: SN12C renal
[2] = test system: MOLT-4 leukemia
[3] = test system: RPMI-8226 leukemia
[4] = test system: MALME-3M melanoma
[5] = test system: U251 CNS
[6] = test system: COLO 205 colon
[7] = test system: SR leukemia
[8] = test system: SW-620 colon
[9] = test system: SF-268 CNS
[10] = test system: NCI-H226 lung
[11] = test system: TK-10 renal
[12] = test system: MDA-MB-231 breast
[13] = test system: MDA-MB-435
[14] = test system: NCI-H522 lung
[15] = test system: DU-145 prostate
[16] = test system: BT-549 breast
[17] = test system: SK-MEL-2 melanoma
[18] = test system: HOP-62 NSCLC
[19] = test system: SF-295 CNS
[20] = test system: SNB-75 CNS
[21] = test system: HS 578T breast
[22] = test system: HCC-2998 colon
[23] = test system: UO-31 renal
[24] = test system: CAKI-1 renal
[25] = test system: HCT-116 colon
[26] = test system: IGROV1 ovarian
[27] = test system: HL-60(TB) leukemia
[28] = test system: OVCAR-4 ovarian
[29] = test system: NCI-H23 lung
[30] = test system: NCI/ADR-RES ovarian
[31] = test system: K-562 leukemia
[32] = test system: OVCAR-5 ovarian
[33] = test system: KM12 colon
[34] = test system: LOX IMVI melanoma
[35] = test system: SK-MEL-28 melanoma
[36] = test system: UACC-62 melanoma
[37] = test system: ACHN renal
[38] = test system: MDA-N
[39] = test system: EKVX NSCLC
[40] = test system: SK-MEL-5 melanoma
[41] = test system: A498 renal
[42] = test system: HCT-15 colon
[43] = test system: OVCAR-8 ovarian
[44] = test system: SNB-19 CNS
[45] = test system: OVCAR-3 ovarian
[46] = test system: RXF 393 renal
[47] = test system: UACC-257 melanoma
[48] = test system: PC-3 prostate
[49] = test system: T-47D breast
[50] = test system: NCI-H460 lung
[51] = test system: 786-0 renal
[52] = test system: MCF7 breast
[53] = test system: HT29 colon
[54] = test system: A549 NSCLC
[55] = test system: SK-OV-3 ovarian
[56] = test system: SF-539 CNS
[57] = test system: CCRF-CEM leukemia
[58] = test system: M14 melanoma

## CNC(=S)Nc1sc2c(c1C#N)CCCC2
[1]
  TGI: > 75 µM
[2]
  TGI: > 75 µM
[3]
  TGI: > 75 µM
[4]
  TGI: > 75 µM
[5]
  TGI: > 75 µM
[6]
  TGI: > 75 µM
[7]
  TGI: > 75 µM
[8]
  TGI: > 75 µM
[9]
  TGI: > 75 µM
[10]
  TGI: > 75 µM
[11]
  TGI: > 75 µM
[12]
  TGI: > 75 µM
[13]
  TGI: > 75 µM
[14]
  TGI: > 75 µM
[15]
  TGI: > 75 µM
[16]
  TGI: > 75 µM
[17]
  TGI: > 75 µM
[18]
  TGI: > 75 µM
[19]
  TGI: > 75 µM
[20]
  TGI: > 75 µM
[21]
  TGI: > 75 µM
[22]
  TGI: > 75 µM
[23]
  TGI: > 75 µM
[24]
  TGI: > 75 µM
[25]
  TGI: > 75 µM
[26]
  TGI: > 75 µM
[27]
  TGI: > 75 µM
[28]
  TGI: > 75 µM
[29]
  TGI: > 75 µM
[30]
  TGI: > 75 µM
[31]
  TGI: > 75 µM
[32]
  TGI: > 75 µM
[33]
  TGI: > 75 µM
[34]
  TGI: > 75 µM
[35]
  TGI: > 75 µM
[36]
  TGI: > 75 µM
[37]
  TGI: > 75 µM
[38]
  TGI: > 75 µM
[39]
  TGI: > 75 µM
[40]
  TGI: > 75 µM
[41]
  TGI: > 75 µM
[42]
  TGI: > 75 µM
[43]
  TGI: > 75 µM
[44]
  TGI: > 75 µM
[45]
  TGI: > 75 µM
[46]
  TGI: > 75 µM
[47]
  TGI: > 75 µM
[48]
  TGI: > 75 µM
[49]
  TGI: > 75 µM
[50]
  TGI: > 75 µM
[51]
  TGI: > 75 µM
[52]
  TGI: > 75 µM
[53]
  TGI: > 75 µM

## CC(C)c1cc(Cl)nc(Cl)n1
[1]
  TGI: > 100 µM
[2]
  TGI: > 100 µM
[3]
  TGI: > 100 µM
[5]
  TGI: > 100 µM
[6]
  TGI: > 100 µM
[7]
  TGI: > 100 µM
[8]
  TGI: > 100 µM
[54]
  TGI: > 100 µM
[9]
  TGI: > 100 µM
[10]
  TGI: > 100 µM
[11]
  TGI: > 100 µM
[12]
  TGI: > 100 µM
[13]
  TGI: > 100 µM
[14]
  TGI: > 100 µM
[15]
  TGI: > 100 µM
[16]
  TGI: > 100 µM
[17]
  TGI: > 100 µM
[55]
  TGI: > 100 µM
[19]
  TGI: > 100 µM
[20]
  TGI: > 100 µM
[21]
  TGI: > 100 µM
[22]
  TGI: > 100 µM
[23]
  TGI: > 100 µM
[24]
  TGI: > 100 µM
[25]
  TGI: > 100 µM
[26]
  TGI: > 100 µM
[56]
  TGI: > 100 µM
[27]
  TGI: > 100 µM
[28]
  TGI: > 100 µM
[29]
  TGI: > 100 µM
[30]
  TGI: > 100 µM
[31]
  TGI: > 100 µM
[32]
  TGI: > 100 µM
[33]
  TGI: > 100 µM
[34]
  TGI: > 100 µM
[35]
  TGI: > 100 µM
[36]
  TGI: > 100 µM
[37]
  TGI: > 100 µM
[38]
  TGI: > 100 µM
[39]
  TGI: > 100 µM
[40]
  TGI: > 100 µM
[57]
  TGI: > 100 µM
[41]
  TGI: > 100 µM
[42]
  TGI: > 100 µM
[43]
  TGI: > 100 µM
[44]
  TGI: > 100 µM
[45]
  TGI: > 100 µM
[46]
  TGI: > 100 µM
[47]
  TGI: > 100 µM
[48]
  TGI: > 100 µM
[49]
  TGI: > 100 µM
[50]
  TGI: > 100 µM
[51]
  TGI: > 100 µM
[52]
  TGI: > 100 µM
[53]
  TGI: > 100 µM
[58]
  TGI: > 100 µM
